From patent US20040191168A1, “Tumor cell killing by cell cycle checkpoint abrogation combined with Inhibition of the classical mitogen activated protein (map) kinase pathway” (priority 2000, published 2004)

Tests used:
Type in all cases: cell-based, human
U937 cells [1] = test: Cell cycle analysis (propidium iodide flow cytometry) in U937 cells; settings: 18 h, UCN-01 150 nM, PD184352 10 μM, FIG. 3A
Protocol: (§1) Cell Cycle Analysis and S-phase Content. Cells (2×10^6) were pelleted at 4° C., resuspended, fixed at 4° C. with 67% ethanol overnight, and treated on ice with a propidium iodide solution containing 3.8 mM Na citrate, 0.5 mg/ml RNase A (Sigma Chemical Co.), and 0.01 mg/ml propidium iodide (Sigma Chemical Co.) for 3 h. Cell cycle analysis was performed by flow cytometry using Verity Winlist software (Topsham, Me.). Incorporation of BrdUrd was monitored to evaluate S-phase content. For each condition, 2 3 10 6 cells (cell density 5 5 3 10 5 /ml) were incubated with […] BrdUrd for 30 min at 37° C. After washing twice with 1% BSA/PBS, the cells were resuspended in 70% ethanol and fixed for 30 min on ice. The BrdUrd-labeled cells were denatured and nuclei released by incubation with 2 N HCl/0.5% Triton X-100 for 30 min at room temperature. After centrifugation, the pellet was resuspended in 0.1 M […] (pH 8.5) to neutralize the acid. […] After washing once with 0.5% Tween 20/1% BSA/PBS, the cells were resuspended in PBS containing […] propiditun iodide and analyzed by flow cytometry. The percentage of S-phase cells was determined by measuring BrdUrd FITC-positive part in a dot plot of FL-3 (red fluorescence) against FL-1 (green fluorescence).

U937 cells [2] = test: S-phase content by BrdUrd incorporation in U937 cells; settings: 12 and 18 h, UCN-01 150 nM, PD184352 10 μM, FIG. 3B
Protocol: as §1

p42/44 MAPK = test: Phospho-MAPK immunoblot in U937 cells; settings: UCN-01 150 nM, MEK inhibitor coincubated with UCN-01, 2 h to 18 h
Protocol: Immunoblot and Immunoprecipitation Analysis. Whole-cell pellets were lysed by sonication in 1× sample buffer [62.5 mM Tris base (pH6.8), 2% SDS, 50 mM DTT, 10% glycerol, 0.1% bromphenol blue, and […] each chymostatin, leupeptin, aprotinin, pepstatin, and soybean trypsin inhibitor] and boiled for 5 min. For analysis of phospho-proteins, 1 mM each Na vanadate and Na PPi was added to the sample buffer. Protein samples were collected from the supernatant after centrifugation of the samples at 12,800 3 g for 5 min, and protein was quantified using Coomassie Protein Assay Reagent (Pierce, Rock-ford, Ill.). Equal amounts of protein ([…]) were separated by SDS-PAGE and electrotransferred onto a nitrocellulose membrane. For blotting phospho-proteins, no SDS was included in the transfer buffer. The blots were blocked with 5% milk in PBS-Tween 20 (0.1%) at room temperature for 1 h and probed with the appropriate dilution of primary antibody overnight at 4° C. The blots were washed twice in PBS-Tween 20 for 15 min and then incubated with a 1:2000 dilution of horseradish peroxidase-conjugated secondary antibody (Kirkegaard & Perry, Gaithersburg, Md.) in 5% milk/PBS-Tween 20 at room temperature for 1 h. […] Protein samples were centrifuged at 12,800×g for 30 min and quantified. […]

SMILES	cell cycle distribution (U937 cells [1])	number of BrdUrd-positive (S-phase) cells (U937 cells [2])	phosphorylation (activation) of MAPK (p42/44 MAPK)
O=C(NOCC1CC1)c1ccc(F)c(F)c1Nc1ccc(I)cc1Cl [PD184352]	little effect on the cell cycle distribution	modest decline	essentially complete
CN[C@@H]1C[C@H]2O[C@@](C)([C@@H]1OC)n1c3ccccc3c3c4c(c5c6ccccc6n2c5c31)C(=O)N[C@H]4O [UCN-01, 7-hydroxystaurosporine]	primarily depleted the G2 M population	no effect	induced phosphorylation (activation) of MAPK
